# From patent US20080262079A1, “Cannabinoid Compositions and Methods of Use Thereof” (priority 2004, published 2008)
# Assays:
# [1] = tested on: Th1 (IFN-γ, IL-12) and Th2 (IL-4, IL-10) cytokines, TGF-β; assay: Cytokine analysis by ELISA in culture supernatants of conA-stimulated lymphoid cells from THC-treated mice; assay type: cell-based, mouse
# [2] = tested on: splenocytes; assay: Proliferation assay (MTS) of conA-stimulated splenocytes isolated from THC-treated mice; assay type: cell-based, mouse; details: cells from THC-treated vs untreated apoE−/− mice, conA 72 hours
# Protocol: Proliferation Assay: Splenocytes (SC) or lymph node cells (LNC) were isolated from THC- or milk-treated mice and cultured in 96-well plates at a concentration of 5×10^6 cells/ml. Culture medium consisted of RPMI 1640 supplemented with 25 mM HEPES buffer, 2 mM L-glutamine, 100 U/ml penicillin, 0.1 mg/ml streptomycin, and 10% heat-inactivated fetal bovine serum (FBS). Cells were stimulated in triplicates with varying concentrations of concanavalin (con A; Sigma). After 72 hours, cell proliferation was determined using a non-radioactive MTS cell proliferation assay (Promega) according to the manufacturer's guidelines.
# [3] = THC levels in blood serum of THC-treated mice (gas chromatography/mass spectrometry); assay type: in vivo, mouse; details: apoE−/− mice, THC 1 mg/kg per day orally
# Protocol: (§1) Reagents: Synthetic delta-9-THC Marinol® (Dronanbinol, Unimed Pharmaceuticals, Inc.; Marietta Ga., USA) was dissolved at 0.1 mg/ml in 5.5.% fat milk (w/v) in water. THC (1 mg/kg per day) in 1.5% fat milk (w/v) was administered orally within drinking water. Delta-9-THC for in vitro experiments was purchased as a stock solution of 1 mg/ml in methanol (Cambridge Isotype Laboratories, Andover Mass., USA) and were further diluted in warm medium immediately before use. For in vitro transmigration assays, all experiments were performed by adding corresponding dilutions of the THC vehicle (methanol) to the non-THC-treated controls.
# [4] = Blood analysis (cholesterol, triglyceride), body weight and tolerability in THC-treated apoE−/− mice
# Protocol: The anti-atherosclerotic potential of THC was tested in the apolipoprotein E^−/− (apoE^−/−) mouse model of atherosclerosis. The studies presented herein utilized delta-9-Tetrahydrocannoabinol (THC), the major component of marijuana, as its immune-modulating effects have been well-documented in several studies. (See e.g., Srivastava, Immuopharmacology 40, 179-85 (1998); Zhu, J Immunol 165, 373-80 (2000); Yuan J Neuroimmunol 133, 124-31 (2002); Lyman, J Neuroimmunol 23, 73-81 (1989); Malfait, Proc Natl Acad Sci USA 97, 9561-6 (2000)). In addition, this compound is already commercially available, for example as an anti-vomiting drug or for use in treating anorexia. Since potential novel anti-inflammatory therapies should be well tolerated and preferably devoid of psychotropic effects, a low dosage of THC (e.g., 1 mg/kg) was used for daily oral administration. […] (Chesher, et al., Pharmacol Biochem Behav 35:861-4 (1990); Brenneisen, et al., Int J Clin Pharmacol Ther 34, 446-52 (1996); Chan, et al., Fundam Appl Toxicol 30, 109-17 (1996)) To test the therapeutic effect of THC on established atherosclerosis, apoE^−/− mice were fed with a high cholesterol diet for 5 weeks, and THC was then administered during the following 6 weeks, while maintaining the cholesterol diet.
# Animals: As a model of in vivo atherosclerosis, 10-week old male apolipoprotein E^−/− mice (apoE^−/−) C57BL/6 mice were used. For histological and atherosclerotic plaque development analysis, mice were fed with a high cholesterol diet (1.25% cholesterol, 0% cholate; Research Diets, New Brunswick N.J., USA) for 5 weeks or for 11 weeks (n=6 per group). THC was administered during the last 6 weeks of the 11 week diet group. In parallel, control mice (littermates) received milk without THC (n =8). For proliferation and cytokine analysis, littermate apoE^−/− mice were divided into 2 groups (control, THC; n=6 per group) and fed with a high cholesterol diet for 4 weeks. THC or milk only was administered during the last 2 weeks of diet. All animal studies were approved by the local Ethical Committee.
# Blood Analysis: For measurements of cholesterol and triglyceride content, blood samples were collected at the beginning and the end of the diet. HDL and VLDL cholesterol fractions of sera were measured by fast protein lipid chromatography. THC levels in blood (after 2, 4 and 6 weeks of treatment) were measured by gas chromatography/mass spectrometry with a limit of detection of […] as previously described. (Giroud, et al. Forensic Sci Int 123, 159-64 (2001)).
# [5] = tested on: apolipoprotein E−/− (apoE−/−) mouse model of atherosclerosis; assay: Atherosclerotic lesion size quantification in apoE−/− mice on high cholesterol diet (Sudan IV staining); assay type: in vivo; details: 11 weeks high cholesterol diet, THC 1 mg/kg daily orally during last 6 weeks, vs control mice
# Protocol: as §1
# Atherosclerotic lesion size quantification: Atherosclerotic lesions within the thoraco-abdominal aorta and aortic roots were analyzed by Sudan IV staining for lipid deposition. Quantification was performed by computer image analysis using the MetaMorph6 software (Zeiss, Feldbach, Switzerland) as previously described. (Kwak et al., Circulation 107, 1033-9 (2003)).
# [6] = tested on: thioglycollate-elicited peritoneal macrophages from apoE−/− mice; assay: Transmigration assay: chemo-attraction of peritoneal macrophages to MCP-1; assay type: cell-based, mouse; details: THC 0.6 ng/ml, 4 hours with 1 ng/ml mIFN-γ, 1 nM MCP-1, 90 minutes
# Text: Early processes of atherosclerosis involve endothelial dysfunction in response to cardiovascular risk factors, which triggers the recruitment of leukocytes (monocytes/macrophages and T lymphocytes) into the vessel wall. The studies described herein address whether treatment with THC inhibited cell migration using a functional in vitro experiment. Thioglycollate-stimulated peritoneal mouse macrophages were isolated from apoE^−/− mice and assayed for their migration capacity by chemo-attraction to MCP-1.
# as §1, with “For in vitro transmigration assays, all experiments were performed by adding corresponding dilutions of the THC vehicle (methanol) to the non-THC-treated controls.” left out
# Transmigration assay: Macrophages from the peritoneal cavity of thioglycollate-injected apoE^−/− mice were isolated 4 days post-injection and stimulated (in triplicates) for 4 hours with 1 ng/ml mIFN-γ in the presence or absence of 0.6 ng/ml THC (n=4 mice). […] Following 90 minutes of incubation, the number of migrated cells was determined by counting (blind observers) 10 microscopic fields per well.
# [7] = tested on: murine collagen-induced arthritis, a mouse model of rheumatoid arthritis; details: cited from earlier work
# [8] = THC-treated vs untreated mice, conA 2 μg/ml, supernatant 48 hours, ELISA
# [9] = THC 1 mg/kg per day orally, apoE−/− mice
# [10] = THC-treated vs control apoE−/− mice
structure (smiles),measurement,setting,value
"CCCCCc1cc(O)c2c(c1)OC(C)(C)C1CCC(C)=CC21 (centres unmarked) [THC, delta-9-tetrahydrocannabinol]",IL-4 expression,"[1]; THC-treated mice, conA-stimulated cells, ELISA",neither expression of IL-4 nor IL-12 was detectable
same,IL-12 expression,"[1]; THC-treated mice, conA-stimulated cells, supernatant 48 hours, ELISA",neither expression of IL-4 nor IL-12 was detectable
same,Th1/Th2 balance (ratio of IFN-γ to IL-10 concentration),[1]; THC-treated vs untreated mice,shift of the Th1/Th2 balance
same,IFN-γ production,[1]; [8],significantly less
same,TGF-β production,[1]; [8],"modest, but not significant, downregulation"
same,IL-10 production,"[1]; THC-treated vs untreated mice, conA 2 μg/ml, supernatant 72 hours, ELISA","modest, but not significant, downregulation"
same,proliferative responses of in vitro stimulated splenocytes,[2],significantly reduced
same,THC concentration in blood serum,[3],0.6 ng/mL
same,deaths during treatment,[4]; [9],None of the THC-treated mice died during treatment
same,unhealthy behavior,[4]; [9],none showed unhealthy behavior
same,body weights,[4]; [10],No differences
same,serum cholesterol levels,[4]; [10],No differences
same,serum triglyceride levels,[4]; [10],No differences
same,progression of atherosclerotic lesions within the aortic roots,[5],significantly reduced progression of atherosclerotic lesions
same,migration of macrophages,[6],significantly inhibited
C=C(C)[C@@H]1CCC(C)=C[C@H]1c1c(O)cc(CCCCC)cc1O [cannabidiol],proliferation and IFN-γ production of lymph node cells from treated mice (Th1 responses),[7]; collagen-induced arthritis mice,reduced
same,chronic inflammation in collagen-induced arthritis,[7]; mouse model of rheumatoid arthritis,ameliorated chronic inflammation
